What was measured:
barnyard grass [1] = experiment: Test Example 3: herbicidal effect by foliage application, Wagner pot (Table 18, symbol H); assay type: in vivo, barnyard grass (Echinochloa crus-galli); conditions: 320 g/ha
How it was run: (§1)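 Plants were sown in alluvial soil held under 0.1–0.5 cm standing water and grown 14 days in a greenhouse at 25–30 °C. An emulsifiable formulation, water-diluted to the set dose, was then sprayed onto the foliage, and effects were scored three weeks later using previously defined criteria.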

Chinese sprangletop = experiment: Test Example 3: herbicidal effect by foliage application, Wagner pot (Table 18, symbol D); assay type: in vivo, chinese sprangletop (Leptochloa chinensis); conditions: 320 g/ha
How it was run: as §1

rice flat sedge = experiment: Test Example 3: herbicidal effect by foliage application, Wagner pot (Table 18, symbol E); assay type: in vivo, rice flat sedge (Cyperus iria); conditions: 320 g/ha
How it was run: as §1

southern crabgrass = experiment: Test Example 5: herbicidal effect by foliage application, plastic box (Table 20, symbol F); assay type: in vivo, southern crabgrass (Digitaria ciliaris); conditions: foliage application after 14-day growth, evaluated three weeks after application
How it was run: (§2)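 Foliar spray test: emulsion formulation diluted in water to a set application rate, sprayed onto 14-day-old plants raised in diluvial soil at 25° C to 30° C under glass. Both herbicidal effect and crop effect rated visually three weeks later.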

green foxtail = experiment: Test Example 5: herbicidal effect by foliage application, plastic box (Table 20, symbol G); assay type: in vivo, green foxtail (Setaria viridis); conditions: foliage application after 14-day growth, evaluated three weeks after application
How it was run: as §2

barnyard grass [2] = experiment: Test Example 5: herbicidal effect by foliage application, plastic box (Table 20, symbol H); assay type: in vivo, barnyard grass (Echinochloa crus-galli); conditions: foliage application after 14-day growth, evaluated three weeks after application
How it was run: as §2

wild oat = experiment: Test Example 5: herbicidal effect by foliage application, plastic box (Table 20, symbol I); assay type: in vivo, wild oat (Avena fatua); conditions: foliage application after 14-day growth, evaluated three weeks after application
How it was run: as §2

blackgrass = experiment: Test Example 5: herbicidal effect by foliage application, plastic box (Table 20, symbol J); assay type: in vivo, blackgrass (Alopecurus myosuroides); conditions: foliage application after 14-day growth, evaluated three weeks after application
How it was run: as §2

Italian ryegrass = experiment: Test Example 5: herbicidal effect by foliage application, plastic box (Table 20, symbol K); assay type: in vivo, Italian ryegrass (Lolium multiflorum); conditions: foliage application after 14-day growth, evaluated three weeks after application
How it was run: as §2

windgrass = experiment: Test Example 5: herbicidal effect by foliage application, plastic box (Table 20, symbol L); assay type: in vivo, windgrass (Apera spica-venti); conditions: foliage application after 14-day growth, evaluated three weeks after application
How it was run: as §2

velvetleaf = experiment: Test Example 5: herbicidal effect by foliage application, plastic box (Table 20, symbol M); assay type: in vivo, velvetleaf (Abutilon theophrasti); conditions: foliage application after 14-day growth, evaluated three weeks after application
How it was run: as §2

redroot pigweed = experiment: Test Example 5: herbicidal effect by foliage application, plastic box (Table 20, symbol N); assay type: in vivo, redroot pigweed (Amaranthus retroflexus); conditions: foliage application after 14-day growth, evaluated three weeks after application
How it was run: as §2

lambsquarters = experiment: Test Example 5: herbicidal effect by foliage application, plastic box (Table 20, symbol O); assay type: in vivo, lambsquarters (Chenopodium album); conditions: foliage application after 14-day growth, evaluated three weeks after application
How it was run: as §2

chickweed = experiment: Test Example 5: herbicidal effect by foliage application, plastic box (Table 20, symbol P); assay type: in vivo, common chickweed (Stellaria media); conditions: foliage application after 14-day growth, evaluated three weeks after application
How it was run: as §2

persian speedwell = experiment: Test Example 5: herbicidal effect by foliage application, plastic box (Table 20, symbol R); assay type: in vivo, Persian speedwell (Veronica persica); conditions: foliage application after 14-day growth, evaluated three weeks after application
How it was run: as §2

[3] = amount of applied herbicide 320 g/ha

## CCCC(=O)Oc1c(C)nn(C)c(=O)c1-c1c(-c2cccc3c2OCC3)sc2c(Cl)cccc12 [4-099]
Barnyard grass [1]
  herbicidal effect on barnyard grass (H): 5 (Herbicidal rate of 90% or more (almost completely withered))
Chinese sprangletop
  herbicidal effect on Chinese sprangletop (D): 5 (Herbicidal rate of 90% or more (almost completely withered))
Rice flat sedge
  herbicidal effect on rice flat sedge (E): 4 (Herbicidal rate of 70% or more and less than 90%)
Southern crabgrass; [3]
  Herbicidal effect by foliage application, F: southern crabgrass: 0 (Herbicidal rate of 5% or less (almost no effect))
Green foxtail; [3]
  Herbicidal effect by foliage application, G: green foxtail: 0 (Herbicidal rate of 5% or less (almost no effect))
Barnyard grass [2]; [3]
  Herbicidal effect by foliage application, H: barnyard grass: 0 (Herbicidal rate of 5% or less (almost no effect))
Wild oat; [3]
  Herbicidal effect by foliage application, I: wild oat: 0 (Herbicidal rate of 5% or less (almost no effect))
blackgrass; [3]
  Herbicidal effect by foliage application, J: blackgrass: 0 (Herbicidal rate of 5% or less (almost no effect))
Italian ryegrass; [3]
  Herbicidal effect by foliage application, K: Italian ryegrass: 0 (Herbicidal rate of 5% or less (almost no effect))
windgrass; [3]
  Herbicidal effect by foliage application, L: windgrass: 0 (Herbicidal rate of 5% or less (almost no effect))
velvetleaf; [3]
  Herbicidal effect by foliage application, M: velvetleaf: 1 (Herbicidal rate of 5% or more and less than 20%)
Redroot pigweed; [3]
  Herbicidal effect by foliage application, N: redroot pigweed: 2 (Herbicidal rate of 20% or more and less than 40%)
lambsquarters; [3]
  Herbicidal effect by foliage application, O: lambsquarters: 0 (Herbicidal rate of 5% or less (almost no effect))
chickweed; [3]
  Herbicidal effect by foliage application, P: chickweed: 1 (Herbicidal rate of 5% or more and less than 20%)
Persian speedwell; [3]
  Herbicidal effect by foliage application, R: persian speedwell: 4 (Herbicidal rate of 70% or more and less than 90%)

## Cc1nn(C)c(=O)c(-c2c(-c3ccc(C(F)(F)F)cc3)sc3c(Cl)cccc23)c1O [4-029]
Barnyard grass [1]
  herbicidal effect on barnyard grass (H): 3 (Herbicidal rate of 40% or more and less than 70%)
Chinese sprangletop
  herbicidal effect on Chinese sprangletop (D): 0 (Herbicidal rate of 5% or less (almost no effect))
Rice flat sedge
  herbicidal effect on rice flat sedge (E): 0 (Herbicidal rate of 5% or less (almost no effect))
Southern crabgrass; 320 g/ha
  herbicidal effect on F: southern crabgrass (evaluation grade 0-5): 0 (Herbicidal rate of 5% or less (almost no effect))
Green foxtail; 320 g/ha
  herbicidal effect on G: green foxtail (evaluation grade 0-5): 0 (Herbicidal rate of 5% or less (almost no effect))
Barnyard grass [2]; 320 g/ha
  herbicidal effect on H: barnyard grass (evaluation grade 0-5): 0 (Herbicidal rate of 5% or less (almost no effect))
Wild oat; 320 g/ha
  herbicidal effect on I: wild oat (evaluation grade 0-5): 0 (Herbicidal rate of 5% or less (almost no effect))
blackgrass; 320 g/ha
  herbicidal effect on J: blackgrass (evaluation grade 0-5): 0 (Herbicidal rate of 5% or less (almost no effect))
Italian ryegrass; 320 g/ha
  herbicidal effect on K: Italian ryegrass (evaluation grade 0-5): 0 (Herbicidal rate of 5% or less (almost no effect))
windgrass; 320 g/ha
  herbicidal effect on L: windgrass (evaluation grade 0-5): 4 (Herbicidal rate of 70% or more and less than 90%)
velvetleaf; 320 g/ha
  herbicidal effect on M: velvetleaf (evaluation grade 0-5): 0 (Herbicidal rate of 5% or less (almost no effect))
Redroot pigweed; 320 g/ha
  herbicidal effect on N: redroot pigweed (evaluation grade 0-5): 0 (Herbicidal rate of 5% or less (almost no effect))
lambsquarters; 320 g/ha
  herbicidal effect on O: lambsquarters (evaluation grade 0-5): 3 (Herbicidal rate of 40% or more and less than 70%)
chickweed; 320 g/ha
  herbicidal effect on P: chickweed (evaluation grade 0-5): 5 (Herbicidal rate of 90% or more (almost completely withered))
Persian speedwell; 320 g/ha
  herbicidal effect on R: persian speedwell (evaluation grade 0-5): 0 (Herbicidal rate of 5% or less (almost no effect))

— US20230085307A1, “PYRIDAZINONE COMPOUND AND HERBICIDE” (NISSAN CHEMICAL CORPORATION, priority 2019, published 2023)
